From US6541519B2, “Methods and compositions for treating lipoxygenase-mediated disease states” (Coastside Bio Resources, priority 2000, dated 2003) come the findings set out here.

pIC50: −log10 of the molar value. In brackets after ≈: the same amount, converted by molar mass.

One test relates to H1299 cells. In words: MTT cytotoxicity assay, H1299. Format: cell-based. Conditions: Homo sapiens, NCI-H1299. The procedure: (§1) The relative cytotoxic activity of 12-MTA against human tumor cells was measured by means of a MTT assay. Human cell lines, including H1299, PC3, K562, A549, DU145, and HL60 were used.
For orientation: Tetrazolium dyes change colour on reduction, which living cells bring about.

Another test deals with HL60 cells. Nature of the test: MTT cytotoxicity assay, HL60. The format is cell-based. To be noted: Homo sapiens, HL-60. As to the method: as §1
The next test has as its system A549 cells. Nature of the test: MTT cytotoxicity assay, A549. To be noted: Homo sapiens. The format is cell-based. As to the method: as §1
In test [1] the test system is PC3 cells. In words: MTT cytotoxicity assay, PC3. The format is cell-based. Conditions: Homo sapiens, PC-3. The procedure: as §1
The next test relates to DU145 cells. In words: MTT cytotoxicity assay, DU145. Format: cell-based. Conditions: Homo sapiens, DU-145. The procedure: as §1
In the next test the test system is K562 cells. In words: MTT cytotoxicity assay, K562. To be noted: Homo sapiens. Format: cell-based. As to the method:
as §1

Test [2] deals with PC3 human prostate cancer cells. Nature of the test: Morphological changes by scanning electron microscopy. The format is cell-based. To be noted: 24.2 μg/ml in 0.1% DMSO, harvested 30', 1, 2, 4, 24 hours. The procedure:
PC3 cells (5×10^5) were plated in 35 mm dishes. After 24 hours, cells were treated with 24.2 μg/ml of 12-MTA in 0.1% DMSO. The cells were harvested at 30′, 1, 2, 4 and 24 hours. Harvested cells were fixed with 2% paraformaldehyde plus 3% glutformaldehyde in 0.1% sodium cacodylate buffer, pH 7.3. Morphological changes were measured by scanning electron microscopy (SEM).

Test [3] deals with PC3 cells. Nature of the test: DNA fragmentation analysis (propidium iodide staining and FACS). Format: cell-based, human. Conditions: 18.15 μg/ml. The procedure:
To measure apoptosis directly, PC3 cells were treated with various concentrations of 12-MTA. Cell death by apoptosis was quantified by propidium iodide staining and FACS analysis. This technique measures cells with fragmented DNA, which appear as a population with hypodiploid DNA content (FIG. 2). 12-MTA induced concentration-dependent DNA fragmentation in PC3 cells.

The subject of a further test is caspase 3 in PC3 cells. In words: Caspase 3 activation and PARP cleavage. Conditions: 24.2 μg/ml, 24 and 48 hours. Format: cell-based, human. As to the method:
Caspases are a family of aspartate-specific cysteine proteases that are required for apoptosis. The most familiar substrate of caspase is PARP, which is involved with regulation of chromatin structure during differentiation and DNA repair. The native PARP protein (Mr, 116,000) is cleaved by caspase 3 or caspase 7 to yield lower molecular weight fragments. To confirm that the induction of apoptosis by 12-MTA involves activation of caspases, we treated PC3 cells with 24.2 μg/ml of 12-MTA and measured PARP cleavage and caspase 3 activation at 24 and 48 hours.

For test [4], the target named is T1, 5-lipoxygenase (Rattus norvegicus, UniProt P12527).
T1 construct: endogenous in cells; host or cells: RBL-1 (rat leukemia) cells
T1 sequence (P12527 1-673): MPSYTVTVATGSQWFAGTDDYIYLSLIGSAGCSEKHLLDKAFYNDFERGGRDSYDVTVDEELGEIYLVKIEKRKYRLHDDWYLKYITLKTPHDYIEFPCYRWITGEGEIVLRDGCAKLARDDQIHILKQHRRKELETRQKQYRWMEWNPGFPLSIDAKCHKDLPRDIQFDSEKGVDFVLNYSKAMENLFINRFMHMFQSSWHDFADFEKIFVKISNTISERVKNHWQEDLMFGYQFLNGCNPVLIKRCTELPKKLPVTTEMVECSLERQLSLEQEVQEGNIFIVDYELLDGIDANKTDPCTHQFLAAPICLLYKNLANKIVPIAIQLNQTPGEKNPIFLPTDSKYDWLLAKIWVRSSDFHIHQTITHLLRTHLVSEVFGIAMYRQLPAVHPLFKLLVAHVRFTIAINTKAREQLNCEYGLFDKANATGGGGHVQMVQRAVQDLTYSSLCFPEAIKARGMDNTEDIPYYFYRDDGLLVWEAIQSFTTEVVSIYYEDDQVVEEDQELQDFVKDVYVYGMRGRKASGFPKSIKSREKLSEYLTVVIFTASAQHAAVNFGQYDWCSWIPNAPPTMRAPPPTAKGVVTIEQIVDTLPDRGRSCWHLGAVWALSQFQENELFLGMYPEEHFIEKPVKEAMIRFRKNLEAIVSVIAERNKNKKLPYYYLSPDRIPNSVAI
Nature of the test: Inhibition of 5-lipoxygenase activity (5-HETE and LTB4 production, LC/MS/MS). Format: cell-based. Conditions: RBL-1 cells, 5 minutes at 37° C., then A23187 and arachidonic acid. As to the method:
(§2) 12-MTA in rat leukemia (RBL-1) cells were examined. Cells were treated with 12-MTA (5 to 100 μg/ml) for 5 minutes at 37° C. followed by addition of A23187 (1 mM) and arachidonic acid (125 μM). Then the eicosanoids were extracted with hexane:ethyl acetate and analyzed by Multiple Reaction Monitoring in a tandem mass spectrometer (LC/MS/MS). Among seven eicosanoid metabolites, including PGE2, LTB4, 5-, 8-, 11-, 12-, and 15-HETEs, reduced production of 5-HETE and LTB4 in 12-MTA treated cells was observed. […] The inhibitory activity of 12-MTA on production of 5-HETE and LTB4 was concentration-dependent. This study further confirmed that 12-MTA is a 5-lipoxygenase inhibitor. 12-MTA, at 100 μg/mL, inhibited production of 12-HETE by 25% […].

Another test deals with 12-lipoxygenase. In words: Inhibition of 12-HETE production in RBL-1 cells (LC/MS/MS). Conditions: 100 μg/mL. Format: cell-based, rat. The procedure:
as §2

For test [5], the system named is PPAR-γ. Nature of the test: PPAR-γ expression by immunoblot, DU145. Format: cell-based, human. Conditions: DU145 cells, 24.2 μg/ml, serum-free media, 24 hours; preliminary data. The procedure: (§3) Peroxisome proliferator-activated receptors (PPAR) represent a family of steroid hormone receptors in a superfamily mainly involved with lipid metabolism. Recently, high levels of PPAR-γ were reportedly expressed in prostate cancer tumor and activation of PPAR-γ was associated with nonapoptotic cell death induced by some PPAR-γ ligands. […] We have examined the effects of 12-MTA on activation of PPAR-γ in DU145 and PC3 cells. Cells were treated with 24.2 μg/ml of 12-MTA in serum-free media. After 24 hours, cells were harvested and expression of PPAR-γ was detected by immunoblot with or without blocking peptide.

For test [6], the system named is PPAR-γ. In words: PPAR-γ expression by immunoblot, PC3. Format: cell-based, human. To be noted: PC3 cells, 24.2 μg/ml, serum-free media, 24 hours; preliminary data. As to the method: as §3
A general note: Immunoblotting shows a protein as a band on a membrane.

Test [7] concerns the target T2, 5-lipoxygenase (Homo sapiens, UniProt P09917).
T2 sequence (P09917 1-674): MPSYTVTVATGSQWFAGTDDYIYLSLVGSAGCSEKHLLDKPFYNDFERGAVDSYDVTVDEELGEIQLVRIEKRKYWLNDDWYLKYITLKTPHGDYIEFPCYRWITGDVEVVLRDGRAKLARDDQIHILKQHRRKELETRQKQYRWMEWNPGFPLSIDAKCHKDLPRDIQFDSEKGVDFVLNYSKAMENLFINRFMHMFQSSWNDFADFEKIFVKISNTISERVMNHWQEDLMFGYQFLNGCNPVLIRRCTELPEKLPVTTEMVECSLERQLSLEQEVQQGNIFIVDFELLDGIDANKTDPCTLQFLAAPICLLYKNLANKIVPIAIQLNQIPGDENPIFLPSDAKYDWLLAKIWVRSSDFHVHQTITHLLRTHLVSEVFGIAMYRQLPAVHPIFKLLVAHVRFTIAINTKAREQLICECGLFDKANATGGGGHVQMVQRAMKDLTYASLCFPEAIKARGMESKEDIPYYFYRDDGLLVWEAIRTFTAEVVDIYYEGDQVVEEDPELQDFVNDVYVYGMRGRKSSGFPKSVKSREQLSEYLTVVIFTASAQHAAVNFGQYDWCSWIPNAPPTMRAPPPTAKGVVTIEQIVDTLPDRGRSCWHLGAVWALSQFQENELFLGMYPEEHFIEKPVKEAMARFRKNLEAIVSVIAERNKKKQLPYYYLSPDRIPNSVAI
In words: Activity based fractionation, 5-HETE inhibition (UV 235 nm). Format: biochemical. To be noted: preparative TLC spot at 1:100 dilution. The text has this: The method of isolation was by ‘activity based fractionation’ using 5- and 12-lipoxygenase inhibition as the guiding assay. Using chromatography, preparative HPLC and preparative TLC of the sea cucumber oil, and checking 5-HETE with detection with UV at 235 nm, one particular spot on the TLC inhibited 5-HETE by approximately 94% at a 1:100 dilution. (FIGS. 3 and 4) The effect of 12-MTA on 5-HETE inhibition was also concentration dependent. The identity of the particular inhibitory ‘spot’ from preparative TLC was later identified by GC/MS, MS and NMR analysis and was confirmed to be 12-methyltetradecanoic acid (12-MTA).

For the molecule `CCC(C)CCCCCCCCCCC(=O)O` (stereo not drawn) [12-MTA, 12-methyltetradecanoic acid], the IC50 with H1299 cells was determined as 18.1 µg/mL (≈ 74.9 µM); in the test with HL60 cells it was 20.6 µg/mL (≈ 84.9 µM); with A549 cells, 21.8 µg/mL (≈ 89.9 µM); in the test on PC3 cells [1], 30.1 µg/mL (≈ 124 µM); in the test on DU145 cells, 30.2 µg/mL (≈ 125 µM); in the test with K562 cells it was 33.1 µg/mL (≈ 137 µM). Moreover, the “Morphological (apoptotic) changes by SEM” value in test [2] is reported as “cells exhibited apoptotic changes after 1-hour of exposure”. The “percent of apoptotic cells (fragmented DNA)” value in the test on PC3 cells [3] is listed as 75%. In addition, the PARP cleavage entry in the test with caspase 3 in PC3 cells is recorded as “prominent PARP cleavage”. Moreover, the “caspase 3 activation” value with caspase 3 in PC3 cells is given as “can activate caspase 3”. The molecule further had a pIC50 at 5-lipoxygenase [4] of roughly 3.99. In the test on 12-lipoxygenase, the “inhibition of production of 12-HETE” value amounted to 25%. The “expression of PPAR-γ” value in the test with PPAR-γ [5] and with PPAR-γ [6] was “only slightly increased” each time. The “inhibition of 5-HETE” value on 5-lipoxygenase [7] is given as “approximately 94%”.

The term IC50 denotes the concentration needed to halve the response being measured. A high value points to weaker potency. Usually pIC50 stands for the negative decadic logarithm of the IC50, by convention in mol/L. A low value points to a high IC50.
